What was measured:
Staphylococcus aureus = assay: Agar plate disc-diffusion, antibacterial, Staphylococcus aureus; assay type: cell-based; conditions: nutrient agar, 37° C., 48 hours
Method: (§1) The agar plate disc-diffusion method was applied. Sterilized filter papers (6 mm in diameter) were wetted with 10 μL of a solution of 2-(benzo[d]thiazol-2-yl)-N′-(2-(5-(4-chlorophenyl)-1, 3,4-oxadiazol-2-ylthio)acetoxy)acetimidamide (3) to be tested, containing 10 mg/mL in DMSO, and the discs were allowed to air dry. The discs were then placed onto the surface of agar plates (nutrient agar for bacteria and Sabouraud's dextrose agar for fungi) seeded with the test organism. Each plate contained 15 mL of the agar medium, previously seeded with 0.2 mL of the broth culture of each organism pregrown for 18 hours. The plates were incubated at 37° C. for 48 hours and 72 hours for fungi. The inhibition zones were measured in mm. Discs impregnated with DMSO were used as a control, and their inhibition zone was subtracted from the tested compound's actual inhibition zone.

Escherichia coli = assay: Agar plate disc-diffusion, antibacterial, Escherichia coli; assay type: cell-based; conditions: nutrient agar, 37° C., 48 hours
Method: as §1

[1] = system: Chrysosporium keratinophilum; assay: Agar plate disc-diffusion, antifungal, Chrysosporium keratinophilum; assay type: cell-based; conditions: Sabouraud's dextrose agar, 72 hours
Method: as §1

Bacillus Cereus = assay: Agar plate disc-diffusion, antibacterial, Bacillus cereus; assay type: cell-based; conditions: nutrient agar, 37° C., 48 hours
Method: as §1

Pseudomonas aeruginosa = assay: Agar plate disc-diffusion, antibacterial, Pseudomonas aeruginosa; assay type: cell-based; conditions: nutrient agar, 37° C., 48 hours
Method: as §1

Aspergillus flavus = assay: Agar plate disc-diffusion, antifungal, Aspergillus flavus; assay type: cell-based; conditions: Sabouraud's dextrose agar, 72 hours
Method: as §1

[2] = A = concentration of comp. = 10,000 μL
[3] = B = concentration of comp. = 30,000 μL
[4] = C = concentration of comp. = 50,000 μL

N/C(Cc1nc2ccccc2s1)=N\OC(=O)CSc1nnc(-c2ccc(Cl)cc2)o1 [compound 3, 2-(benzo[d]thiazol-2-yl)-N′-(2-(5-(4-chlorophenyl)-1,3,4-oxadiazol-2-ylthio)acetoxy)acetimidamide]
inhibition zone, Staphylococcus aureus, A (Staphylococcus aureus; [2]): 33 mm
inhibition zone, Staphylococcus aureus, B (Staphylococcus aureus; [3]): 40 mm
inhibition zone, Staphylococcus aureus, C (Staphylococcus aureus; [4]): 52 mm
inhibition zone, Escherichia coli, A (Escherichia coli; [2]): 25 mm
inhibition zone, Escherichia coli, B (Escherichia coli; [3]): 34 mm
inhibition zone, Escherichia coli, C (Escherichia coli; [4]): 47 mm
inhibition zone, Chrysosporium keratinophilum, A [1, 2]: 26 mm
inhibition zone, Chrysosporium keratinophilum, B [1, 3]: 31 mm
inhibition zone, Chrysosporium keratinophilum, C [1, 4]: 49 mm
inhibition zone, Bacillus Cereus, A (Bacillus Cereus; A =): 25 mm
inhibition zone, Bacillus Cereus, B (Bacillus Cereus; [3]): 28 mm
inhibition zone, Bacillus Cereus, C (Bacillus Cereus; [4]): 39 mm
inhibition zone, Pseudomonas aeruginosa, A (Pseudomonas aeruginosa; [2]): 23 mm
inhibition zone, Pseudomonas aeruginosa, B (Pseudomonas aeruginosa; [3]): 27 mm
inhibition zone, Pseudomonas aeruginosa, C (Pseudomonas aeruginosa; [4]): 43 mm
inhibition zone, Aspergillus flavus, A (Aspergillus flavus; [2]): 24 mm
inhibition zone, Aspergillus flavus, B (Aspergillus flavus; [3]): 29 mm
inhibition zone, Aspergillus flavus, C (Aspergillus flavus; [4]): 41 mm
melting point: 157 to 158 °C

Source: US11919892B1, “2-(benzo[d]thiazol-2-yl)-N'-(2-(5-(4-chlorophenyl)-1,3,4-oxadiazol-2-ylthio)acetoxy)acetimidamide as an antimicrobial compound” (KING FAISAL UNIVERSITY, priority 2023, dated 2024)
